Broadly, the inhibition in vivo is how much of the control response was suppressed. Usually inhibition stands for the percentage by which the read-out fell short of the control.

The source made the active and inactive calls. The rule behind the calls is not given here.

The subject of assay [1] is Rattus norvegicus. The experiment in a line: Antiinflammatory activity in rat assessed as inhibition of carrageenan-induced paw edema at 50 mg/kg, po measured at 360 mins after carrageenan challenge by plethysmographic analysis. The format is functional. The conditions noted are these: 6 h.
The subject of assay [2] is Rattus norvegicus. The experiment in a line: Antiinflammatory activity in rat assessed as inhibition of carrageenan-induced paw edema at 50 mg/kg, po measured at 270 mins after carrageenan challenge by plethysmographic analysis. The assay is classed as functional. The conditions noted are these: 4.5 h. Background: In the carrageenan paw model, swelling and tenderness develop within hours.

Assay [3] deals with Rattus norvegicus. The experiment in a line: Antiinflammatory activity in rat assessed as inhibition of carrageenan-induced paw edema at 50 mg/kg, po measured at 180 mins after carrageenan challenge by plethysmographic analysis. The format is functional. The conditions noted are these: 3 h.
Assay [4] relates to Rattus norvegicus. Put plainly: Antiinflammatory activity in rat assessed as inhibition of carrageenan-induced paw edema at 50 mg/kg, po measured at 90 mins after carrageenan challenge by plethysmographic analysis. The assay is classed as functional. The conditions noted are these: 1.5 h.
For assay [5], the species on record is Ovis aries. Put plainly: Selectivity ratio of ovine COX1 to ovine COX2 at 20 uM.
Assay [6] deals with T1, Prostaglandin G/H synthase 1 (Ovis aries) (UniProt P05979).
T1 sequence (whole entry): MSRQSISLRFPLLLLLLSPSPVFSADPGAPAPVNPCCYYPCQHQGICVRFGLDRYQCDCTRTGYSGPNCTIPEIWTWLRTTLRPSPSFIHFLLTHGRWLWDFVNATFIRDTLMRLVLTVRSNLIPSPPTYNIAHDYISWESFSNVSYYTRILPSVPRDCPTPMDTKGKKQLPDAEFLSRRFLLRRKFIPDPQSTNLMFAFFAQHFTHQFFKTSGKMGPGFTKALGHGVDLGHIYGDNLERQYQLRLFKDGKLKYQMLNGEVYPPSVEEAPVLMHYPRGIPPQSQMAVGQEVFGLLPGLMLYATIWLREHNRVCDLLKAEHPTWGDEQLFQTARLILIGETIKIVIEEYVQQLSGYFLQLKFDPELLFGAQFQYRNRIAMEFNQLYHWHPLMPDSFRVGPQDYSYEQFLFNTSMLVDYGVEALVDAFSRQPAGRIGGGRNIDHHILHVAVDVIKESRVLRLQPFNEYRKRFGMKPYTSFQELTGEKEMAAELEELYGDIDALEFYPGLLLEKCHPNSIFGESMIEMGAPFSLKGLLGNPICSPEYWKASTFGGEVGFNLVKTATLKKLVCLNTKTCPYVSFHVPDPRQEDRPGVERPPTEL
The experiment in a line: Inhibition of ovine COX1 peroxidase activity assessed as TMPD oxidation at 20 uM by colorimetric analysis.

On to `CSc1ccc(C2Nc3ccccc3C(=O)N2c2ccc(F)cc2)cc1` (configuration not stated), for which the inhibition in vivo at 50 mg/kg was determined as 44% in assay [1], 42% in assay [2], 39% in assay [3] and 32% in assay [4].
In the case of `CS(=O)(=O)c1ccc(C2Nc3ccccc3C(=O)N2c2ccccc2F)cc1` (configuration not stated), the inhibition in vivo at 50 mg/kg in assay [1] was found to be 44%; in assay [2], 42%; in assay [3], 39%; in assay [4] it was 36%. In addition, the Selectivity ratio in assay [5] was determined as 0.278. In addition, the inhibition in assay [6] is 15%.
Consider `CSc1ccc(C2Nc3ccccc3C(=O)N2c2ccc(Cl)cc2)cc1` (configuration not stated), for which the inhibition in vivo at 50 mg/kg was found to be 47% in assay [1], 46% in assay [2], 41% in assay [3] and 38% in assay [4]. In addition, the Selectivity ratio in assay [5] amounted to 0.055. Further, the inhibition in assay [6] is 5%.
In the case of `CSc1ccc(C2Nc3ccccc3C(=O)N2c2ccccc2F)cc1` (configuration not stated), the inhibition in vivo at 50 mg/kg came to 41% in assay [1], 39% in assay [2], 37% in assay [3] and 33% in assay [4].
As to `CS(=O)(=O)c1ccc(C2Nc3ccccc3C(=O)N2c2ccc(Cl)cc2)cc1` (configuration not stated), the inhibition in vivo at 50 mg/kg in assay [1] worked out at 51%; in assay [2], 46%; in assay [3], 42%; in assay [4] it was 37%. Further, the Selectivity ratio in assay [5] is above 0.001. Besides, the inhibition result in assay [6] was “inactive”.
With `CS(=O)(=O)c1ccc(C2Nc3ccccc3C(=O)N2c2ccccc2)cc1` (configuration not stated), the inhibition in vivo at 50 mg/kg came to 40% in assay [1], 38% in assay [2], 35% in assay [3] and 31% in assay [4]. Moreover, the Selectivity ratio in assay [5] came out at 0.742. For the same compound, in assay [6], the inhibition turned out to be 49%.
Turning to `COc1ccc(N2C(=O)c3ccccc3NC2c2ccc(SC)cc2)cc1` (configuration not stated), the inhibition in vivo at 50 mg/kg in assay [1] was 40%; in assay [2], 38%; in assay [3], 35%; in assay [4], 33%.
`CSc1ccc(C2Nc3ccccc3C(=O)N2c2ccc(C)cc2)cc1` (configuration not stated): the inhibition in vivo at 50 mg/kg in assay [1] came out at 39%; in assay [2], 38%; in assay [3] it was 34%; in assay [4] it was 30%.
Take `COc1ccc(N2C(=O)c3ccccc3NC2c2ccc(S(C)(=O)=O)cc2)cc1` (configuration not stated): the inhibition in vivo at 50 mg/kg in assay [1] came to 49%; in assay [2], 47%; in assay [3], 43%; in assay [4] it was 39%. In assay [5], the Selectivity ratio was found to be 0.577. For the same compound, in assay [6], the inhibition came out at 41%.
Take `CSc1ccc(C2Nc3ccccc3C(=O)N2c2ccccc2)cc1` (configuration not stated): the inhibition in vivo at 50 mg/kg came out at 39% in assay [1], 37% in assay [2], 34% in assay [3] and 30% in assay [4].
Take `Cc1ccc(N2C(=O)c3ccccc3NC2c2ccc(S(C)(=O)=O)cc2)cc1` (configuration not stated): the inhibition in vivo at 50 mg/kg in assay [1] is 40%; in assay [2], 39%; in assay [3], 35%; in assay [4], 34%. In addition, in assay [5], the Selectivity ratio was above 0.01. Besides, the inhibition entry in assay [6] was “inactive”.
Regarding `CS(=O)(=O)c1ccc(C2Nc3ccccc3C(=O)N2c2ccc(F)cc2)cc1` (configuration not stated), the inhibition in vivo at 50 mg/kg in assay [1] is 48%; in assay [2] it was 45%; in assay [3], 43%; in assay [4], 38%. The Selectivity ratio in assay [5] was above 0.001. For the same compound, the inhibition entry in assay [6] is “inactive”.

The values above are taken from ChEMBL document CHEMBL2203087, “Analogue-based design, synthesis and docking of non-steroidal anti-inflammatory agents. Part 2: methyl sulfanyl/methyl sulfonyl substituted 2,3-diaryl-2,3-dihydro-1H-quinazolin-4-ones” (Bioorg Med Chem, 2012).
